Data from patent EP4603105A1, “PHARMACEUTICAL COMPOSITION CONTAINING CYCLIC COMPOUND HAVING SELECTIVE KRAS INHIBITORY EFFECT AGAINST HRAS AND NRAS” (CHUGAI SEIYAKU KABUSHIKI KAISHA, priority 2022, dated 2024).
Like-named read-outs stand apart in the source and are kept apart here.

Tests used:
[1] = molecular target: HRAS wild-type protein (Homo sapiens, UniProt P01112); experiment: Binding to HRAS by surface plasmon resonance (SPR), KD and KD ratio to KRAS
Summary of the method: (§1)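 Recombinant RAS proteins bearing a biotinylated Avi tag and loaded with GDP served as the captured ligand, recaptured fresh every cycle. Binding responses were referenced to an uncoated surface and a buffer-only blank cycle. Dissociation constants were obtained by 1:1 model fitting at 30°C.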

[2] = molecular target: GDP-bound KRAS wild-type protein (Homo sapiens, UniProt P01116); experiment: Binding to KRAS by surface plasmon resonance (SPR), dissociation constant KD
Sequence of GDP-bound KRAS wild-type protein (P01116 1-188 isoform P01116-2): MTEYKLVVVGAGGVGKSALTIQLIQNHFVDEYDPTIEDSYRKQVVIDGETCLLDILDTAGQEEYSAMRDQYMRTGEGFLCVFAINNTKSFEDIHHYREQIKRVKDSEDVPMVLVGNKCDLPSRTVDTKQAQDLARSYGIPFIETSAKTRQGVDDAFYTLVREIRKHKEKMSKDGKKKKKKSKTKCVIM
Summary of the method: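 Read-out is KD from 1:1 fitting of single-cycle kinetics sensorgrams, blank-cycle and reference-surface corrected. Proteins were GDP-loaded, biotinylated Avi-fusions freshly captured each cycle at roughly 100–300 RU. Runs were at 30°C in HBS pH 7.4 with MgCl2, GDP and 4% DMSO.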

[3] = molecular target: GDP-bound NRAS wild-type protein (Homo sapiens, UniProt P01111); experiment: Binding to NRAS by surface plasmon resonance (SPR), KD and KD ratio to KRAS
Sequence of GDP-bound NRAS wild-type protein (P01111 whole entry): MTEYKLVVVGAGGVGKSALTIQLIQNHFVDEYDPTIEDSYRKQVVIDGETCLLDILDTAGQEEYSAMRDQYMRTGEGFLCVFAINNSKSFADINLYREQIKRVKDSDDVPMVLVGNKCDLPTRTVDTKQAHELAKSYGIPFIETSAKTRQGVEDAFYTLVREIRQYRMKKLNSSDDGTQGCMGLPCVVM
Summary of the method: as §1

[4] = tested on: human lung cancer strain NCI-H441; experiment: NCI-H441 cell proliferation inhibitory activity (CellTiter-Glo, 4 days); type: cell-based; conditions: read-out: NCl-H441 IC50
Summary of the method: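 Signal came from […] measured per well once the reagent was added. Beforehand, cells were cultured at 37°C and 5% carbon dioxide on a compound series serially diluted in dimethyl sulfoxide.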

[5] = ratio of KD with respect to HRAS wild-type protein to KD with respect to KRAS
[6] = Single Cycle Kinetics, 1:1 binding model
[7] = ratio of KD with respect to GDP-bound NRAS wild-type protein to KD with respect to KRAS
[8] = 50% proliferation inhibitory concentration, four days
[9] = ratio of KD for HRAS wild-type protein to KD for KRAS
[10] = ratio of KD for GDP-bound NRAS wild-type protein to KD for KRAS

Sequence of HRAS wild-type protein (P01112 whole entry): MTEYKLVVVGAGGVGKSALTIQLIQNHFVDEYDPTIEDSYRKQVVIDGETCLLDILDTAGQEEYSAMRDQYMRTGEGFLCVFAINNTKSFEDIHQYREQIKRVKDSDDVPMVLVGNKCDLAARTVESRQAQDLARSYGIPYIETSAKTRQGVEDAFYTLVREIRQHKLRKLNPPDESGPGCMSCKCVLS

Compound	HRAS /KRAS [1, 5]	Kd [2, 6]	NRAS /KRAS [3, 7]	IC50 [4, 8]	HRAS /KRAS [1, 9]	Kd ([2]; 1:1 binding model)	NRAS /KRAS [3, 10]	IC50 ([4]; NCI-H441 cells, 4 days)	Kd ([2]; Single Cycle Kinetics)
CCO[C@@H]1C[C@H]2C(=O)NC3(CCC3)C(=O)N(C)[C@@H](C3CCCC3)C(=O)N(C)[C@H](C(=O)N3CCOCC3)CC(=O)N(C)[C@@H](C)C(=O)N[C@@H]([C@@H](C)CC)C(=O)N(C)CC(=O)N(C)[C@H]3CCCCCN(C3=O)[C@@H](Cc3ccc(F)cc3)C(=O)N(C)CC(=O)N[C@@H](CCc3cc(F)c(C(F)(F)F)c(F)c3)C(=O)N2C1 [PP1175]	B (a compound having 3 or more and less than 10 is denoted as B)	0.16 nM	B (a compound having 3 or more and less than 10 is denoted as B)	23.5 nM					
CC[C@H](C)[C@@H]1NC(=O)[C@H](CC)N(C)C(=O)C[C@@H](C(=O)N2CCOCC2)N(C)C(=O)[C@H](C2CCCC2)N(C)C(=O)C2(CCCC2)NC(=O)[C@@H]2CCCN2C(=O)[C@H](CCc2cc(F)c(C(F)(F)F)c(F)c2)NC(=O)CN(C)C(=O)[C@H](Cc2ccc(C(F)(F)F)cc2)N2C[C@H](C)[C@H](C)C[C@@H](C2=O)N(C)C(=O)CN(C)C1=O [PP1365]	B (a compound having 3 or more and less than 10 is denoted as B)	0.13 nM	A (a compound having 10 or more and less than 20 is denoted as A)	4.2 nM					
CCCOC[C@H]1C(=O)N[C@@H]([C@@H](C)CC)C(=O)N(C)CC(=O)N(C)[C@H]2C/C=C\CCN(C2=O)[C@@H](Cc2ccc(C)cc2)C(=O)N(C)CC(=O)N[C@@H](CCc2ccc(C(F)(F)F)c(OC)c2)C(=O)N2C[C@H](OCC)C[C@H]2C(=O)NC2(CC(C)(C)C2)C(=O)N(C)[C@@H](C2CCCC2)C(=O)N(C)[C@H](C(=O)N(C)C)CC(=O)N1C [PP2449]					A (a compound having 10 or more and less than 20 is denoted as A)	0.061 nM	A (a compound having 10 or more and less than 20 is denoted as A)	7.8 nM	
CCC[C@H]1C(=O)N[C@@H]([C@@H](C)CC)C(=O)N(C2CC2)CC(=O)N(C)[C@H]2C/C=C\CCN(C2=O)[C@@H](Cc2ccc(C)cc2)C(=O)N(C)CC(=O)N[C@@H](CCc2ccc(Cl)c(Cl)c2)C(=O)N2C[C@H](OCC)C[C@H]2C(=O)NC2(CC(C)(C)C2)C(=O)N(C)[C@@H](C2CCCC2)C(=O)N(C)[C@H](C(=O)N(C)C)CC(=O)N1C [PP2559]					A (a compound having 10 or more and less than 20 is denoted as A)	0.91 nM	A (a compound having 10 or more and less than 20 is denoted as A)	103 nM	
CCO[C@@H]1C[C@H]2C(=O)NC3(CCCC3)C(=O)N(C)[C@@H](C3CCCC3)C(=O)N(C)[C@H](C(=O)N(C)C)CC(=O)N(C)[C@@H](CC)C(=O)N[C@@H]([C@@H](C)CC)C(=O)N(C)CC(=O)N(C)[C@H]3C/C=C\CCN(C3=O)[C@@H](Cc3ccc(C(F)(F)F)cc3)C(=O)N(C)CC(=O)N[C@@H](CCc3cc(F)c(C(F)(F)F)c(F)c3)C(=O)N2C1 [PP1276]	B (a compound having 3 or more and less than 10 is denoted as B)	0.066 nM	A (a compound having 10 or more and less than 20 is denoted as A)	20.8 nM					
CCO[C@@H]1C[C@H]2C(=O)NC3(CC(C)(C)C3)C(=O)N(C)[C@@H](C3CCCC3)C(=O)N(C)[C@H](C(=O)N(C)CC)CC(=O)N(C)[C@@H]([C@H](C)OC)C(=O)N[C@@H]([C@@H](C)CC)C(=O)N3CCC[C@H]3C(=O)N(C)[C@H]3C/C=C\CCN(C3=O)[C@@H](Cc3ccc(C(F)(F)F)cc3)C(=O)N(C)CC(=O)N[C@@H](CCc3ccc(C(F)(F)F)c(OC)c3)C(=O)N2C1 [PP3222]					A (a compound having 10 or more and less than 20 is denoted as A)		A (a compound having 10 or more and less than 20 is denoted as A)	71.7 nM	1.4 nM
CCO[C@@H]1C[C@H]2C(=O)NC3(CC(C)(C)C3)C(=O)N(C)[C@@H](C(CC)CC)C(=O)N(C)[C@H](C(=O)N(C)C)CC(=O)N(C)[C@@H](C(C)C)C(=O)N[C@@H]([C@@H](C)CC)C(=O)N(C)CC(=O)N(C)[C@H]3C/C=C\CCN(C3=O)[C@@H](CC3CCC(F)(F)CC3)C(=O)N(C)CC(=O)N[C@@H](CCc3ccc(C(F)(F)F)c(Cl)c3)C(=O)N2C1 [PP2492]					A (a compound having 10 or more and less than 20 is denoted as A)	2.4 nM	AA (a compound having 20 or more is denoted as AA)	76.7 nM	
CCC[C@H]1C(=O)N[C@@H]([C@@H](C)CC)C(=O)N2CC[C@H]2C(=O)N(C)[C@H]2C/C(F)=C\CCN(C2=O)[C@@H](Cc2ccc(C(F)(F)F)cc2)C(=O)N(C)CC(=O)N[C@@H](CCc2ccc(C(F)(F)F)c(OC)c2)C(=O)N2C[C@H](OCC)C[C@H]2C(=O)N(C)C2(CCC2)C(=O)N(C)[C@@H](C2CCCC2)C(=O)N(C)[C@H](C(=O)N(C)C)CC(=O)N1C [PP3529]					B (a compound having 3 or more and less than 10 is denoted as B)		B (a compound having 3 or more and less than 10 is denoted as B)	7.1 nM	0.11 nM
CC[C@H](C)[C@@H]1NC(=O)[C@H](CC)N(C)C(=O)C[C@@H](C(=O)N(C)C)N(C)C(=O)[C@H](C2CCCC2)N(C)C(=O)C2(CCC2)NC(=O)[C@@H]2C[C@H](C)CN2C(=O)[C@H](CCc2cc(F)c(C(F)(F)F)c(F)c2)NC(=O)CN(C)C(=O)[C@H](CC2CCC(F)(F)CC2)N2CC/C=C\C[C@@H](C2=O)N(C)C(=O)CN(C)C1=O [PP1457]	A (a compound having 10 or more and less than 20 is denoted as A)	0.15 nM	A (a compound having 10 or more and less than 20 is denoted as A)	30.4 nM					
CCC[C@H]1C(=O)N[C@@H]([C@@H](C)CC)C(=O)N(C2CC2)CC(=O)N(C)[C@H]2C/C=C\CCN(C2=O)[C@@H](Cc2ccc(C)cc2)C(=O)N(C)CC(=O)N[C@@H](CCc2ccc(Cl)c(Cl)c2)C(=O)N2C[C@H](OC3CCC3)C[C@H]2C(=O)NC2(CC(C)(C)C2)C(=O)N(C)[C@@H](C2CCCC2)C(=O)N(C)[C@H](C(=O)N(C)C)CC(=O)N1C [PP2616]					A (a compound having 10 or more and less than 20 is denoted as A)	0.8 nM	A (a compound having 10 or more and less than 20 is denoted as A)	66.4 nM	
CCO[C@@H]1C[C@H]2C(=O)OC3(CCC3)C(=O)N(C)[C@@H](C3CCCC3)C(=O)N(C)[C@H](C(=O)N(C)C)CC(=O)N(C)[C@@H]([C@H](C)OC)C(=O)N[C@@H]([C@@H](C)CC)C(=O)N(C3CC3)CC(=O)N(C)[C@H]3C/C=C\CCN(C3=O)[C@@H](Cc3ccc(C)cc3)C(=O)N(C)CC(=O)N[C@@H](CCc3ccc(C(F)(F)F)c(OC)c3)C(=O)N2C1 [PP3396]					B (a compound having 3 or more and less than 10 is denoted as B)		A (a compound having 10 or more and less than 20 is denoted as A)	12.9 nM	1.4 nM
CCO[C@@H]1C[C@H]2C(=O)NC3(CCCC3)C(=O)N(C)[C@@H](C3CCCC3)C(=O)N(C)[C@H](C(=O)N(C)C)CC(=O)N(C)[C@@H](CC(C)C)C(=O)N[C@@H]([C@@H](C)CC)C(=O)N(C)CC(=O)N(C)[C@H]3C/C=C\CCN(C3=O)[C@@H](CC3CCCCC3)C(=O)N(C)CC(=O)N[C@@H](CCc3cc(F)c(C(F)(F)F)c(F)c3)C(=O)N2C1 [PP1473]	A (a compound having 10 or more and less than 20 is denoted as A)	0.19 nM	A (a compound having 10 or more and less than 20 is denoted as A)	36.6 nM					
CCC[C@H]1C(=O)N[C@@H]([C@@H](C)CC)C(=O)N2CCCC[C@H]2C(=O)N(C)[C@H]2C/C=C\CCN(C2=O)[C@@H](Cc2ccc(C)cc2)C(=O)N(C)CC(=O)N[C@@H](CCc2cc(F)c(C(F)(F)F)c(F)c2)C(=O)N2C[C@H](OCC)C[C@H]2C(=O)N(C)C2(CCC2)C(=O)N(C)[C@@H](C2CCCC2)C(=O)N(C)[C@H](C(=O)N(C)C)CC(=O)N1C [PP3274]					B (a compound having 3 or more and less than 10 is denoted as B)		A (a compound having 10 or more and less than 20 is denoted as A)	25.1 nM	0.81 nM
C#CCN1CC(=O)N(C)[C@H]2C/C=C\CCN(C2=O)[C@@H](Cc2ccc(C)cc2)C(=O)N(C)CC(=O)N[C@@H](CCc2cc(F)c(C(F)(F)F)c(F)c2)C(=O)N2C[C@H](OCC)C[C@H]2C(=O)NC2(CC(C)(C)C2)C(=O)N(C)[C@@H](C2CCCC2)C(=O)N(C)[C@H](C(=O)N(C)C)CC(=O)N(C)[C@@H](CCC)C(=O)N[C@@H](CC(C)C)C1=O [PP2512]					A (a compound having 10 or more and less than 20 is denoted as A)	2 nM	A (a compound having 10 or more and less than 20 is denoted as A)	109 nM	
